In patent US11203591B2, “Substituted 6-azabenzimidazole compounds” (Gilead Sciences, Inc., priority 2018, dated 2021):

These compounds were tested against human HPK1 (MAP4K1) (Homo sapiens (Human), UniProt Q92918) (assay: HPK1 IC50 Assay (TR-FRET peptide phosphorylation)). Details: recombinant HPK1 kinase domain 0.15 nM, 10 μM ATP, 1 μM STK S1 peptide; geometric mean of multiple experiments.
Assay type: biochemical
How it was run: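 Pre-activated, dually phosphorylated baculovirus-expressed HPK1 kinase domain (0.15 nM) preincubated 15 min with compound, then reacted 3 h at 25° C with 10 μM ATP and 1 μM STK S1 peptide in BES pH 7.0 buffer. Phosphopeptide read by TR-FRET (665/620 nm); four-parameter fit, geometric-mean IC50.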

Chain of human HPK1 (MAP4K1) (Q92918 17-274): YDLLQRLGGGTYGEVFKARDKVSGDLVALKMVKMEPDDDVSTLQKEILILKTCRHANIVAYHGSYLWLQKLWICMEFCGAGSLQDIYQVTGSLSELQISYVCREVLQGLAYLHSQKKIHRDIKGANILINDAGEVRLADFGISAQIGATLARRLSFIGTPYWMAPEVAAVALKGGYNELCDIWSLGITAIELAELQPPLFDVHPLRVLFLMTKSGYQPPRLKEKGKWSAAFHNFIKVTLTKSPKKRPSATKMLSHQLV

Structure (SMILES) | IC50
Cc1cc(F)c(Nc2nc(-c3cnc4c(c3)N([C@H]3C[C@@](C)(N5CCOCC5)C3)C(=O)C4(C)C)cc3ncn(C(C)C)c23)cc1C(=O)NC1(C(F)F)CC1 [Example 215, N-(1-(Difluoromethyl)cyclopropyl)-5-((6-(3,3-dimethyl-1-((1s,3s)-3-methyl-3-morpholinocyclobutyl)-2-oxo-2,3-dihydro-1H-pyrrolo[3,2-b]pyridin-6-yl)-3-isopropyl-3H-imidazo[4,5-c]pyridin-4-yl)amino)-4-fluoro-2-methylbenzamide] | 0.1 nM
Cc1c(C(=O)NCC(F)F)cc(Nc2nc(-c3cnc4c(c3)N([C@H]3C[C@@](C)(N5CCCCC5)C3)C(=O)C4(C)C)cc3ncn(C(C)C)c23)c(F)c1F [Example 217, N-(2,2-Difluoroethyl)-5-((6-(3,3-dimethyl-1-((1s,3s)-3-methyl-3-(piperidin-1-yl)cyclobutyl)-2-oxo-2,3-dihydro-1H-pyrrolo[3,2-b]pyridin-6-yl)-3-isopropyl-3H-imidazo[4,5-c]pyridin-4-yl)amino)-3,4-difluoro-2-methylbenzamide] | 0.06 nM
CC(C)n1cnc2cc(-c3cnc4c(c3)N([C@H]3C[C@@](C)(N5CCCCC5)C3)C(=O)C4(C)C)nc(Nc3cc(C(=O)NC4(C(F)F)CC4)ccc3F)c21 [Example 218, N-(1-(difluoromethyl)cyclopropyl)-3-((6-(3,3-dimethyl-1-((1s,3s)-3-methyl-3-(piperidin-1-yl)cyclobutyl)-2-oxo-2,3-dihydro-1H-pyrrolo[3,2-b]pyridin-6-yl)-3-isopropyl-3H-imidazo[4,5-c]pyridin-4-yl)amino)-4-fluorobenzamide] | 0.06 nM
Cc1cc(F)c(Nc2nc(-c3cnc4c(c3)N([C@H]3C[C@@](C)(N5CCCCC5)C3)CC4(C)C)cc3ncn(C(C)C)c23)cc1C(=O)NC1(C(F)F)CC1 [Example 219, N-(1-(Difluoromethyl)cyclopropyl)-5-((6-(3,3-dimethyl-1-((1s,3s)-3-methyl-3-(piperidin-1-yl)cyclobutyl)-2,3-dihydro-1H-pyrrolo[3,2-b]pyridin-6-yl)-3-isopropyl-3H-imidazo[4,5-c]pyridin-4-yl)amino)-4-fluoro-2-methylbenzamide] | 0.2 nM
Cc1c(C(=O)NC(C)C)cc(Nc2nc(-c3cnc4c(c3)N([C@H]3C[C@@](C)(N5CCCCC5)C3)C(=O)C4(C)C)cc3ncn(C(C)C)c23)c(F)c1F [Example 220, 5-((6-(3,3-Dimethyl-1-((1s,3s)-3-methyl-3-(piperidin-1-yl)cyclobutyl)-2-oxo-2,3-dihydro-1H-pyrrolo[3,2-b]pyridin-6-yl)-3-isopropyl-3H-imidazo[4,5-c]pyridin-4-yl)amino)-3,4-difluoro-N-isopropyl-2-methylbenzamide] | 0.09 nM
Cc1c(C(=O)NC2CC2)cc(Nc2nc(-c3cnc4c(c3)N([C@H]3C[C@@](C)(N5CCCCC5)C3)C(=O)C4(C)C)cc3ncn(C(C)C)c23)c(F)c1F [Example 221, N-Cyclopropyl-5-((6-(3,3-dimethyl-1-((1s,3s)-3-methyl-3-(piperidin-1-yl)cyclobutyl)-2-oxo-2,3-dihydro-1H-pyrrolo[3,2-b]pyridin-6-yl)-3-isopropyl-3H-imidazo[4,5-c]pyridin-4-yl)amino)-3,4-difluoro-2-methylbenzamide] | 0.07 nM
CCNC(=O)c1ccc(F)c(Nc2nc(-c3cnc4c(c3)N([C@H]3C[C@@](C)(N5CCCCC5)C3)C(=O)C4(C)C)cc3ncn(C(C)C)c23)c1 [Example 223, 3-((6-(3,3-Dimethyl-1-((1s,3s)-3-methyl-3-(piperidin-1-yl)cyclobutyl)-2-oxo-2,3-dihydro-1H-pyrrolo[3,2-b]pyridin-6-yl)-3-isopropyl-3H-imidazo[4,5-c]pyridin-4-yl)amino)-N-ethyl-4-fluorobenzamide] | 0.2 nM
CC(C)n1cnc2cc(-c3cnc4c(c3)N([C@H]3C[C@@](C)(N5CCC6CC6C5)C3)C(=O)C4(C)C)nc(Nc3cc(C(=O)NC4(C(F)F)CC4)c(Cl)c(F)c3F)c21 (some centres unmarked) [Example 225, 5-((6-(1-((1s,3s)-3-(3-Azabicyclo[4.1.0]heptan-3-yl)-3-methylcyclobutyl)-3,3-dimethyl-2-oxo-2,3-dihydro-1H-pyrrolo[3,2-b]pyridin-6-yl)-3-isopropyl-3H-imidazo[4,5-c]pyridin-4-yl)amino)-2-chloro-N-(1-(difluoromethyl)cyclopropyl)-3,4-difluorobenzamide] | 0.08 nM
CC(C)n1cnc2cc(-c3cnc4c(c3)N([C@H]3C[C@@](C)(N5CCCCCC5)C3)C(=O)C4(C)C)nc(Nc3cc(C(=O)NC4(C(F)F)CC4)c(Cl)c(F)c3F)c21 [Example 226, 5-((6-(1-((1s,3s)-3-(Azepan-1-yl)-3-methylcyclobutyl)-3,3-dimethyl-2-oxo-2,3-dihydro-1H-pyrrolo[3,2-b]pyridin-6-yl)-3-isopropyl-3H-imidazo[4,5-c]pyridin-4-yl)amino)-2-chloro-N-(1-(difluoromethyl)cyclopropyl)-3,4-difluorobenzamide] | 0.1 nM
CC(C)n1cnc2cc(-c3cnc4c(c3)N([C@H]3C[C@@](C)(N5CCC6CC6C5)C3)C(=O)C4(C)C)nc(Nc3cc(C(=O)NC4(CF)CC4)c(Cl)c(F)c3F)c21 (some centres unmarked) [Example 227, 5-((6-(1-((1s,3s)-3-(3-Azabicyclo[4.1.0]heptan-3-yl)-3-methylcyclobutyl)-3,3-dimethyl-2-oxo-2,3-dihydro-1H-pyrrolo[3,2-b]pyridin-6-yl)-3-isopropyl-3H-imidazo[4,5-c]pyridin-4-yl)amino)-2-chloro-3,4-difluoro-N-(1-(fluoromethyl)cyclopropyl)benzamide] | 0.1 nM
Cc1c(C(=O)NC2(C(F)F)CC2)cc(Nc2nc(-c3cnc4c(c3)N([C@H]3C[C@@](C)(N5CCCCCC5)C3)C(=O)C4(C)C)cc3ncn(C(C)C)c23)c(F)c1F [Example 229, 5-((6-(1-((1s,3s)-3-(Azepan-1-yl)-3-methylcyclobutyl)-3,3-dimethyl-2-oxo-2,3-dihydro-1H-pyrrolo[3,2-b]pyridin-6-yl)-3-isopropyl-3H-imidazo[4,5-c]pyridin-4-yl)amino)-N-(1-(difluoromethyl)cyclopropyl)-3,4-difluoro-2-methylbenzamide] | 0.08 nM
Cc1c(C(=O)NC2(C(F)F)CC2)cc(Nc2nc(-c3cnc4c(c3)N(C3CC(C)(N5CCC6C[C@@H]6C5)C3)C(=O)C4(C)C)cc3ncn(C(C)C)c23)c(F)c1F (some centres unmarked) [Example 231, 5-((6-(1-((1s,3s)-3-(3-Azabicyclo[4.1.0]heptan-3-yl)-3-methylcyclobutyl)-3,3-dimethyl-2-oxo-2,3-dihydro-1H-pyrrolo[3,2-b]pyridin-6-yl)-3-isopropyl-3H-imidazo[4,5-c]pyridin-4-yl)amino)-N-(1-(difluoromethyl)cyclopropyl)-3,4-difluoro-2-methylbenzamide] | 0.1 nM

More lines, now with the values ahead:

IC50 | Structure (SMILES)
0.1 nM | Cc1cc(F)c(Nc2nc(-c3cnc4c(c3)N([C@H]3C[C@@](C)(N5CCCCC5)C3)C(=O)C4(C)C)cc3ncn(C(C)C)c23)cc1C(=O)NC1(C(F)F)CC1 [Example 216, N-(1-(Difluoromethyl)cyclopropyl)-5-((6-(3,3-dimethyl-1-((1s,3s)-3-methyl-3-(piperidin-1-yl)cyclobutyl)-2-oxo-2,3-dihydro-1H-pyrrolo[3,2-b]pyridin-6-yl)-3-isopropyl-3H-imidazo[4,5-c]pyridin-4-yl)amino)-4-fluoro-2-methylbenzamide]
0.06 nM | CCNC(=O)c1cc(Nc2nc(-c3cnc4c(c3)N([C@H]3C[C@@](C)(N5CCCCC5)C3)C(=O)C4(C)C)cc3ncn(C(C)C)c23)c(F)c(F)c1C [Example 222, 5-((6-(3,3-Dimethyl-1-((1s,3s)-3-methyl-3-(piperidin-1-yl)cyclobutyl)-2-oxo-2,3-dihydro-1H-pyrrolo[3,2-b]pyridin-6-yl)-3-isopropyl-3H-imidazo[4,5-c]pyridin-4-yl)amino)-N-ethyl-3,4-difluoro-2-methylbenzamide]
0.06 nM | Cc1c(C(=O)NC2(C(F)F)CC2)cc(Nc2nc(-c3cnc4c(c3)N([C@H]3C[C@@](C)(N5CC6CCC5CO6)C3)C(=O)C4(C)C)cc3ncn(C(C)C)c23)c(F)c1F (some centres unmarked) [Example 224, 5-((6-(1-((1s,3s)-3-(2-oxa-5-azabicyclo[2.2.2]octan-5-yl)-3-methylcyclobutyl)-3,3-dimethyl-2-oxo-2,3-dihydro-1H-pyrrolo[3,2-b]pyridin-6-yl)-3-isopropyl-3H-imidazo[4,5-c]pyridin-4-yl)amino)-N-(1-(difluoromethyl)cyclopropyl)-3,4-difluoro-2-methylbenzamide]
0.3 nM | Cc1c(C(=O)NC2(C(F)F)CC2)cc(Nc2nc(-c3cnc4c(c3)N([C@H]3C[C@@](C)(N5CC6CCC(C5)O6)C3)C(=O)C4(C)C)cc3ncn(C(C)C)c23)c(F)c1F [Example 228, 5-((6-(1-((1s,3s)-3-(8-Oxa-3-azabicyclo[3.2.1]octan-3-yl)-3-methylcyclobutyl)-3,3-dimethyl-2-oxo-2,3-dihydro-1H-pyrrolo[3,2-b]pyridin-6-yl)-3-isopropyl-3H-imidazo[4,5-c]pyridin-4-yl)amino)-N-(1-(difluoromethyl)cyclopropyl)-3,4-difluoro-2-methylbenzamide]
0.1 nM | Cc1c(C(=O)NC2(C(F)F)CC2)cc(Nc2nc(-c3cnc4c(c3)N([C@H]3C[C@@](C)(N5CC6CCC(C6)C5)C3)C(=O)C4(C)C)cc3ncn(C(C)C)c23)c(F)c1F [Example 230, 5-((6-(1-((1s,3s)-3-(3-Azabicyclo[3.2.1]octan-3-yl)-3-methylcyclobutyl)-3,3-dimethyl-2-oxo-2,3-dihydro-1H-pyrrolo[3,2-b]pyridin-6-yl)-3-isopropyl-3H-imidazo[4,5-c]pyridin-4-yl)amino)-N-(1-(difluoromethyl)cyclopropyl)-3,4-difluoro-2-methylbenzamide]
